Experimental data from patent US10975077B2 (Novira Therapeutics, Inc., priority 2016, dated 2021).

The molecules below were run on HBV (encapsidated HBV DNA, HepG2.2.15 cells) (assay: HBV replication inhibition assay, BDNA assay in HepG2.2.15 cells). Settings: Activity in BDNA-assay.
Type: cell-based
Outline: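 HepG2.2.15 cells (stably integrated HBV, 40,000/well) treated with serially diluted compound in 0.5% DMSO for 6 days, medium and compound refreshed at day 3. DNase-treated supernatant lysed with proteinase K; encapsidated HBV DNA quantified by bDNA, percent inhibition versus DMSO controls, EC50 by nonlinear fit.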

| Structure (SMILES) | EC50 [nM] |
| --- | --- |
| CN1CC(CNCC(F)F)Cn2nc3c(c2C1=O)CN(C(=O)Nc1ccc(F)c(C(F)(F)F)c1F)CC3 (single isomer, unassigned) [Compound 131_E2, (S*)—N-(2,4-difluoro-3-(trifluoromethyl)phenyl)-8-(((2,2-difluoroethyl)amino)methyl)-10-methyl-11-oxo-1,3,4,7,8,9,10,11-octahydro-2H-pyrido[4′,3′:3,4]pyrazolo[1,5-a][1,4]diazepine-2-carboxamide] | 100 to 500 |
| C[C@@H]1Cc2nn3c(c2CN1C(=O)Nc1ccc(F)c(C(F)(F)F)c1)C(=O)N(C)CC(F)(CO)C3 (single isomer, unassigned) [Compound 133_D2, (3R,8S*)-8-fluoro-N-(4-fluoro-3-(trifluoromethyl)phenyl)-8-(hydroxymethyl)-3,10-dimethyl-11-oxo-1,3,4,7,8,9,10,11-octahydro-2H-pyrido[4′,3′:3,4]pyrazolo[1,5-a][1,4]diazepine-2-carboxamide_D2] | 1 to 100 |
| C[C@@H]1Cc2nn3c(c2CN1C(=O)Nc1ccc(F)c(C#N)c1)C(=O)N(C)CC(F)C3 (single isomer, unassigned) [Compound 137_D2, (3R,8S*)-N-(3-Cyano-4-fluorophenyl)-8-fluoro-3,10-dimethyl-11-oxo-1,3,4,7,8,9,10,11-octahydro-2H-pyrido[4′,3′:3,4]pyrazolo[1,5-a][1,4]diazepine-2-carboxamide] | 1 to 100 |

Same assay, conditions: Hepatitis B virus, HepG2.2.15, Activity in BDNA-assay

| Structure (SMILES) | EC50 [nM] |
| --- | --- |
| C[C@@H]1Cc2nn3c(c2CN1C(=O)Nc1ccc(F)c(C(F)(F)F)c1)C(=O)N(C)CC(F)(CO)C3 (single isomer, unassigned) [Compound 133_D1, (3R,8R*)-8-fluoro-N-(4-fluoro-3-(trifluoromethyl)phenyl)-8-(hydroxymethyl)-3,10-dimethyl-11-oxo-1,3,4,7,8,9,10,11-octahydro-2H-pyrido[4′,3′:3,4]pyrazolo[1,5-a][1,4]diazepine-2-carboxamide_D1] | 1 to 100 |
| C[C@@H]1Cc2nn3c(c2CN1C(=O)Nc1ccc(F)c(C#N)c1)C(=O)N(C)CC(F)C3 (single isomer, unassigned) [Compound 137_D1, (3R,8R*)—N-(3-cyano-4-fluorophenyl)-8-fluoro-3,10-dimethyl-11-oxo-1,3,4,7,8,9,10,11-octahydro-2H-pyrido[4′,3′:3,4]pyrazolo[1,5-a][1,4]diazepine-2-carboxamide_D1] | 1 to 100 |
| C[C@@H]1Cc2nn3c(c2CN1C(=O)Nc1ccc(F)c(C(F)(F)F)c1)C(=O)N(C)CC(F)C3 (single isomer, unassigned) [Compound 138, (3R,8R*)-8-fluoro-N-(4-fluoro-3-(trifluoromethyl)phenyl)-3,10-dimethyl-11-oxo-1,3,4,7,8,9,10,11-octahydro-2H-pyrido[4′,3′:3,4]pyrazolo[1,5-a][1,4]diazepine-2-carboxamide] | 1 to 100 |
| C=C1CN(C)C(=O)c2c3c(nn2C1)CCN(C(=O)Nc1ccc(F)c(Cl)c1)C3 [Compound 001, N-(3-chloro-4-fluorophenyl)-10-methyl-8-methylene-11-oxo-1,3,4,7,8,9,10,11-octahydro-2H-pyrido[4′,3′:3,4]pyrazolo[1,5-a][1,4]diazepine-2-carboxamide] | 1 to 100 |
| CN1CC(O)(CO)Cn2nc3c(c2C1=O)CN(C(=O)Nc1ccc(F)c(Cl)c1)CC3 (stereo not drawn) [Compound 003] | 500 to 1000 |
| CN1CC(O)Cn2nc3c(c2C1=O)CN(C(=O)Nc1ccc(F)c(Cl)c1)CC3 (stereo not drawn) [Compound 004, N-(3-chloro-4-fluorophenyl)-8-hydroxy-10-methyl-11-oxo-1,3,4,7,8,9,10,11-octahydro-2H-pyrido[4′,3′:3,4]pyrazolo[1,5-a][1,4]diazepine-2-carboxamide] | 1 to 100 |
| CN1CC(F)(F)Cn2nc3c(c2C1=O)CN(C(=O)Nc1ccc(F)c(Cl)c1)CC3 [Compound 005, N-(3-chloro-4-fluorophenyl)-8,8-difluoro-10-methyl-11-oxo-1,3,4,7,8,9,10,11-octahydro-2H-pyrido[4′,3′:3,4]pyrazolo[1,5-a][1,4]diazepine-2-carboxamide] | 1 to 100 |
| CN1CC(F)Cn2nc3c(c2C1=O)CN(C(=O)Nc1ccc(F)c(Cl)c1)CC3 (stereo not drawn) [Compound 006, N-(3-chloro-4-fluorophenyl)-8-fluoro-10-methyl-11-oxo-1,3,4,7,8,9,10,11-octahydro-2H-pyrido[4′,3′:3,4]pyrazolo[1,5-a][1,4]diazepine-2-carboxamide] | 1 to 100 |
| CN1CC(F)Cn2nc3c(c2C1=O)CN(C(=O)Nc1ccc(F)c(Br)c1)CC3 (stereo not drawn) [Compound 007, N-(3-bromo-4-fluorophenyl)-8-fluoro-10-methyl-11-oxo-1,3,4,7,8,9,10,11-octahydro-2H-pyrido[4′,3′:3,4]pyrazolo[1,5-a][1,4]diazepine-2-carboxamide] | 1 to 100 |
| CN1CC(F)Cn2nc3c(c2C1=O)CN(C(=O)Nc1ccnc(Br)c1F)CC3 (stereo not drawn) [Compound 008, N-(2-bromo-3-fluoropyridin-4-yl)-8-fluoro-10-methyl-11-oxo-1,3,4,7,8,9,10,11-octahydro-2H-pyrido[4′,3′:3,4]pyrazolo[1,5-a][1,4]diazepine-2-carboxamide] | 1 to 100 |
| CN1CC(F)Cn2nc3c(c2C1=O)CN(C(=O)Nc1ccc(F)c(C#N)c1)CC3 (stereo not drawn) [Compound 009, N-(3-cyano-4-fluorophenyl)-8-fluoro-10-methyl-11-oxo-1,3,4,7,8,9,10,11-octahydro-2H-pyrido[4′,3′:3,4]pyrazolo[1,5-a][1,4]diazepine-2-carboxamide] | 1 to 100 |
| Cc1cc(NC(=O)N2CCc3nn4c(c3C2)C(=O)N(C)CC(F)C4)ccc1F (stereo not drawn) [Compound 010, 8-fluoro-N-(4-fluoro-3-methylphenyl)-10-methyl-11-oxo-1,3,4,7,8,9,10,11-octahydro-2H-pyrido[4′,3′:3,4]pyrazolo[1,5-a][1,4]diazepine-2-carboxamide] | 1 to 100 |
| CN1CC(F)Cn2nc3c(c2C1=O)CN(C(=O)Nc1ccc(F)c(C(F)(F)F)c1)CC3 (stereo not drawn) [Compound 011, 8-fluoro-N-(4-fluoro-3-(trifluoromethyl)phenyl)-10-methyl-11-oxo-1,3,4,7,8,9,10,11-octahydro-2H-pyrido[4′,3′:3,4]pyrazolo[1,5-a][1,4]diazepine-2-carboxamide] | 1 to 100 |
| CN1CC(F)Cn2nc3c(c2C1=O)CN(C(=O)Nc1cc(Cl)c(F)cc1F)CC3 (stereo not drawn) [Compound 012, N-(5-chloro-2,4-difluorophenyl)-8-fluoro-10-methyl-11-oxo-1,3,4,7,8,9,10,11-octahydro-2H-pyrido[4′,3′:3,4]pyrazolo[1,5-a][1,4]diazepine-2-carboxamide] | 1 to 100 |
| CN1CC(F)Cn2nc3c(c2C1=O)CN(C(=O)Nc1cc(Br)c(F)cc1F)CC3 (stereo not drawn) [Compound 013, N-(5-bromo-2,4-difluorophenyl)-8-fluoro-10-methyl-11-oxo-1,3,4,7,8,9,10,11-octahydro-2H-pyrido[4′,3′:3,4]pyrazolo[1,5-a][1,4]diazepine-2-carboxamide] | 1 to 100 |
| CC1CN(C)C(=O)c2c3c(nn2C1)CCN(C(=O)Nc1ccc(F)c(Cl)c1)C3 (stereo not drawn) [Compound 014, N-(3-chloro-4-fluoro-phenyl)-8,10-dimethyl-11-oxo-1,3,4,7,8,9-hexahydropyrido[2,3]pyrazolo[2,4-b][1,4]diazepine-2-carboxamide] | 1 to 100 |
| CN1CCCn2nc3c(c2C1=O)CN(C(=O)Nc1ccc(F)c(Cl)c1)CC3 [Compound 015, N-(3-chloro-4-fluoro-phenyl)-10-methyl-11-oxo-1,3,4,7,8,9-hexahydropyrido [2,3]pyrazolo[2,4-b][1,4]diazepine-2-carboxamide] | 1 to 100 |
| CCOC1CN(C)C(=O)c2c3c(nn2C1)CCN(C(=O)Nc1ccc(F)c(Cl)c1)C3 (stereo not drawn) [Compound 017, N-(3-chloro-4-fluorophenyl)-8-ethoxy-10-methyl-11-oxo-1,3,4,7,8,9,10,11-octahydro-2H-pyrido[4′,3′:3,4]pyrazolo[1,5-a][1,4]diazepine-2-carboxamide] | 1 to 100 |
| CN1CC(N)Cn2nc3c(c2C1=O)CN(C(=O)Nc1ccc(F)c(Cl)c1)CC3 (stereo not drawn) [Compound 019, 8-amino-N-(3-chloro-4-fluorophenyl)-10-methyl-11-oxo-1,3,4,7,8,9,10,11-octahydro-2H-pyrido[4′,3′:3,4]pyrazolo[1,5-a][1,4]diazepine-2-carboxamide] | 100 to 500 |
| CN1CC(N(C)C)Cn2nc3c(c2C1=O)CN(C(=O)Nc1ccc(F)c(Cl)c1)CC3 (stereo not drawn) [Compound 020, N-(3-chloro-4-fluorophenyl)-8-(dimethylamino)-10-methyl-11-oxo-1,3,4,7,8,9,10,11-octahydro-2H-pyrido[4′,3′:3,4]pyrazolo[1,5-a][1,4]diazepine-2-carboxamide] | 1 to 100 |
| CN1CC(N2CCOCC2)Cn2nc3c(c2C1=O)CN(C(=O)Nc1ccc(F)c(Cl)c1)CC3 (stereo not drawn) [Compound 021, N-(3-chloro-4-fluorophenyl)-10-methyl-8-morpholino-11-oxo-1,3,4,7,8,9,10,11-octahydro-2H-pyrido[4′,3′:3,4]pyrazolo[1,5-a][1,4]diazepine-2-carboxamide] | 100 to 500 |
| CN1CC(N2CC(F)(F)C2)Cn2nc3c(c2C1=O)CN(C(=O)Nc1ccc(F)c(Cl)c1)CC3 (stereo not drawn) [Compound 022, N-(3-chloro-4-fluorophenyl)-8-(3,3-difluoroazetidin-1-yl)-10-methyl-11-oxo-1,3,4,7,8,9,10,11-octahydro-2H-pyrido[4′,3′:3,4]pyrazolo[1,5-a][1,4]diazepine-2-carboxamide] | 100 to 500 |
| CN1CC(N2CCC2)Cn2nc3c(c2C1=O)CN(C(=O)Nc1ccc(F)c(Cl)c1)CC3 (stereo not drawn) [Compound 023, 8-(azetidin-1-yl)-N-(3-chloro-4-fluorophenyl)-10-methyl-11-oxo-1,3,4,7,8,9,10,11-octahydro-2H-pyrido[4′,3′:3,4]pyrazolo[1,5-a][1,4]diazepine-2-carboxamide] | 1 to 100 |
| CN1CC(N2CCCC2)Cn2nc3c(c2C1=O)CN(C(=O)Nc1ccc(F)c(Cl)c1)CC3 (stereo not drawn) [Compound 024, N-(3-chloro-4-fluorophenyl)-10-methyl-11-oxo-8-(pyrrolidin-1-yl)-1,3,4,7,8,9,10,11-octahydro-2H-pyrido[4′,3′:3,4]pyrazolo[1,5-a][1,4]diazepine-2-carboxamide] | 1 to 100 |
